The numbers were not newly measured in patent publication US9221747B2, “Method of making fatty acid N-acylalkanolamines” (Iowa State University Research Foundation, Inc., priority 2012, dated 2015), which cites them from elsewhere.

For this series the following is noted: at −20° C.

For the compound `CCCCC/C=C\C/C=C\CCCCCCCC(=O)O` [linoleic acid], the solubility in methanol is on record as 233 g/100 g methanol.

With `CCCCCCCC/C=C\CCCCCCCC(=O)O` [oleic acid], the solubility in methanol is 4.02 g/100 g methanol.
